Measurements: patent publication EP3891153B1, “NAPHTHALIMIDOFURANS FOR APPLICATIONS IN MOLECULAR BIOLOGY” (Univerzita Karlova, 1. Lékarská Fakulta, priority 2018, dated 2020)

Experiment: UV/VIS and fluorescence studies (spectral properties of the probes in four solvents)
Format: physicochemical
Conditions: for Absorbance maxima (nm) / Emission maxima (nm): 1 µM or 0,1 µM; for fluorescence intensities: compared with probes 2 and 4 with pyranone motive
Description: Spectral properties of fluorescent probes 2, 4, 6, 8 and 10 (2 and 4 are for reference only) Spectral characteristics of probes were obtained by using a UV/VIS and fluorescence studies. The probes were measured in four solvents (DMSO, methanol, ethanol and phosphate buffer). Each LysoSers was at first dissolved in DMSO 1mM stock solution which was diluted to a final concentration 1 µM or 0,1 µM.
All prepared probes have absorption maximum in the ultraviolet range of 350-400 nm and emission maximum in the range of 400 to 450 nm. […] Table 1. Absorption and emission maxima of probes 2, 4, 6, 8 and 10 in different solvents (probes 2 and 4 are for reference only)

Row | Absorbance maxima (nm) (solvent DMSO) | Emission maxima (nm) (solvent DMSO) | Absorbance maxima (nm) (solvent EtOH) | Emission maxima (nm) (solvent EtOH) | Absorbance maxima (nm) (solvent MeOH) | Emission maxima (nm) (solvent MeOH) | Absorbance maxima (nm) (solvent PBS) | Emission maxima (nm) (solvent PBS) | fluorescence intensities | Structure (SMILES)
1 | 379 | 440 | 388 | 448 | 387 | 442 | 389 | 448 | – | CCCCCCN1C(=O)c2cccc3c2c(cc2oc(=O)c(C(=O)NCCN(C)C)cc23)C1=O [Probe 2]
2 | 368 | 432 | 319 | 434 | 317 | 435 | 320 | 437 | – | CCCCCCN1C(=O)c2cccc3c2c(cc2cc(C(=O)NCCN(C)C)c(=O)oc23)C1=O [Probe 4]
3 | 373 | 424 | 376 | 422 | 373 | 421 | 373 | 429 | higher fluorescence intensities | CCCCCCN1C(=O)c2cccc3c2c(cc2oc(C(=O)NCCN(C)C)cc23)C1=O [Probe 6]
4 | 368 | 416 | 341 | 415 | 341 | 416 | 360 | 428 | higher fluorescence intensities | CCCCCCN1C(=O)c2cccc3c2c(cc2cc(C(=O)NCCN(C)C)oc23)C1=O [Probe 8]
5 | 377 | 435 | 365 | 410 | 372 | 420 | 377 | 431 | higher fluorescence intensities | CN(C)CCNC(=O)c1cc2c(cc3c4c(cccc42)C(=O)N(C)C3=O)o1 [Probe 10]
